The target of one data set is T1, Recombinant human BACE1 (Homo sapiens, UniProt P56817).
T1 construct: purchased R&D Systems
Briefly: Assay of BACE1 inhibitory activity. Type of data set: biochemical. The settings on record: Recombinant human BACE1, 30° C., 3 hours, pH 5.0; read-out: IC50 (50% inhibitory concentration against the enzymatic activity). The method, then:
48.5 μL of substrate peptide solution (Biotin-XSEVNLDAEFRHDSGC-Eu: X=ε-amino-n-capronic acid, Eu=Europium cryptate) was added to each well of 96-hole half-area plate (a black plate: Costar), and after addition of 0.5 μl of the compound of the present invention (N,N′-dimethylformamide solution) and 1 μl of Recombinant human BACE1(R&D Systems), the reaction mixture was incubated at 30° C. for 3 hours. The substrate peptide was synthesized by reacting Cryptate TBPCOOH mono SMP (CIS bio international) with Biotin-XSEVNLDAEFRHDSGC (Peptide Institute, Inc.). The final concentrations of the substrate peptide and Recombinant human BACE1 were adjusted to 18 nmol/L and 7.4 nmol/L, respectively, and the reaction was performed in sodium acetate buffer (50 mmol/L sodium acetate, pH 5.0, 0.008% Triton X-100). After the incubation for reaction, 50 μl of 8.0 μg/ml Streptavidin-XL665 (CIS bio international) dissolved in phosphate buffer (150 mmol/L K2HPO4—KH2PO4, pH 7.0, 0.008% Triton X-100, 0.8 mol/L KF) was added to each well and left stand at 30° C. for 1 hour. After then, fluorescence intensity was measured (excitation wavelength: 320 nm, measuring wavelength: 620 nm and 665 nm) using Wallac 1420 multilabel counter (Perkin Elmer life sciences). Enzymatic activity was determined from counting ratio of each wavelength (10,000×Count 665/Count 620) and 50% inhibitory concentration against the enzymatic activity (IC50) was calculated.

Data set [1] deals with Aβ production in Neuroblastoma SH-SY5Y cells (SH/APPwt). Briefly: Measurement of β-amyloid (Aβ) production inhibiting effect in cell. Type of data set: cell-based. The settings on record: Homo sapiens, 24 hours, Amyloid β1-40 HTRF, read-out: IC50 (amount needed to inhibit Aβ production by 50%). The method, then: Neuroblastoma SH-SY5Y cells (SH/APPwt) with human wild-type 13-APP excessively expressed therein were prepared at 8×10^5 cells/mL, and 150 μl portions thereof were inoculated into each well of a 96-well culture plate (Falcon). The cells were cultured for 2 hours at 37° C. in a 5% gaseous carbon dioxide incubator. Then, a solution which have been preliminarily prepared by adding and suspending the compound of the present invention (DMSO (dimethyl sulfoxide) solution) so as to be 2 μl/50 μl medium was added to the cell sap. Namely, the final DMSO concentration was 1%, and the amount of the cell culture was 200 μl. After the incubation was performed for 24 hours from the addition of the test compound, 100 μl of the culture supernatant was collected from each fraction. The amount of the Aβ in each fraction was measured.
The Aβ amount was measured as follows. 10 μl of a homogeneous time resolved fluorescence (HTRF) measurement reagent (Amyloid β1-40 peptide; IBA Molecular Holding, S.A.) and 10 μl of the culture supernatant were put into a 384-well half area microplate (black microplate, Costar) and mixed with each other, and then left standing overnight at 4° C. while the light was shielded. Then, the fluorescence intensity (excitation wavelength: 337 nm, measurement wavelength: 620 nm and 665 nm) was measured with Wallac 1420 multilabel counter (Perkin Elmer life sciences). The Aβ amount was determined from the count rate at each measurement wavelength (10000×Count 665/Count 620), and the amount needed to inhibit A6 production by 50% (IC50) was calculated from at least six different dosages.

Data set [2] is described as follows: Solubility test (turbidity, JP-I, JP-II). Type of data set: physicochemical. The settings on record: kinetic from dmso stock, turbidity after 4 hours, 2% DMSO. How it is done: A 2-fold dilution series (12 points) of a 10 mM solution of a compound of the present invention in DMSO was added to a medium (JP-I, JP-II) (2%), and solubility was assessed by 3 stages (High; >40 μM, Medium; 3-40 μM, Low; <3 μM) from a turbidity after 4 hours.

The next data set deals with CYP3A4 (Homo sapiens, UniProt P08684). Briefly: CYP3A4 fluorescent MBI test. Type of data set: in vitro ADME. Also on record: host or cells: Escherichia coli. Particulars: pre-reaction time 0 or 30 minutes, substrate 7-BFC. How it is done: The CYP3A4 fluorescent MBI test is a test of investigating enhancement of CYP3A4 inhibition of the compound of the present invention by a metabolism reaction. 7-benzyloxytrifluoromethylcoumarin (7-BFC) is debenzylated by the CYP3A4 enzyme (enzyme expressed in Escherichia coli) and a metabolite, 7-hydroxytrifluoromethylcoumarin (7-HFC) which emits fluorescent light is produced. The test is performed using 7-HFC production reaction as an index.
Sequence of CYP3A4 (P08684 whole entry): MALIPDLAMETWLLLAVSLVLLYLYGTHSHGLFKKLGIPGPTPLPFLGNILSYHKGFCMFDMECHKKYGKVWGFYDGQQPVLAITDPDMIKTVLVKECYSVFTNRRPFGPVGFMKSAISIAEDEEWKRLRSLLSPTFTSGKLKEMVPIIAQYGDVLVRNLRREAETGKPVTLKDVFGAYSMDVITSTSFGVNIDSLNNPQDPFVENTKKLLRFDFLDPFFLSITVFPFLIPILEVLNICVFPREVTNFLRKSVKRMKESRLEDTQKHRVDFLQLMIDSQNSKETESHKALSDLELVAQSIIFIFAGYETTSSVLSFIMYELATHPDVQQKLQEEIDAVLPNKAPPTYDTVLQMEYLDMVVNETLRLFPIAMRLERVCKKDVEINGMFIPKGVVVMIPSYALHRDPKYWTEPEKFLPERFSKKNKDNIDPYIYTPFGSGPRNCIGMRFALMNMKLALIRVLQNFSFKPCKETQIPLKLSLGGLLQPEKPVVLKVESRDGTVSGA
The reaction conditions are as follows: substrate, 5.6 μmol/L 7-BFC: pre-reaction time, 0 or 30 minutes; reaction time, 15 minutes; reaction temperature, 25° C. […]
An enzyme in a K-Pi buffer (pH 7.4) and the compound of the present invention solution as a pre-reaction solution were added to a 96-well plate at the composition of the pre-reaction, a part of it was transferred to another 96-well plate so that it was 1/10 diluted by a substrate in a K-Pi buffer, NADPH as a co-factor was added to initiate a reaction as an index (without preincubation) and, after a predetermined time of a reaction, acetonitrile/0.5 mol/L Tris (trishydroxyaminomethane)=4/1 was added to stop the reaction. […] For the plate on which each index reaction had been performed, a fluorescent value of 7-HFC which is a metabolite was measured with a fluorescent plate reader. […]

The source of these data is US8927721B2, “Naphthyridine derivative” (Shionogi & Co., Ltd., priority 2010, dated 2015).

T1 sequence (P56817 46-501): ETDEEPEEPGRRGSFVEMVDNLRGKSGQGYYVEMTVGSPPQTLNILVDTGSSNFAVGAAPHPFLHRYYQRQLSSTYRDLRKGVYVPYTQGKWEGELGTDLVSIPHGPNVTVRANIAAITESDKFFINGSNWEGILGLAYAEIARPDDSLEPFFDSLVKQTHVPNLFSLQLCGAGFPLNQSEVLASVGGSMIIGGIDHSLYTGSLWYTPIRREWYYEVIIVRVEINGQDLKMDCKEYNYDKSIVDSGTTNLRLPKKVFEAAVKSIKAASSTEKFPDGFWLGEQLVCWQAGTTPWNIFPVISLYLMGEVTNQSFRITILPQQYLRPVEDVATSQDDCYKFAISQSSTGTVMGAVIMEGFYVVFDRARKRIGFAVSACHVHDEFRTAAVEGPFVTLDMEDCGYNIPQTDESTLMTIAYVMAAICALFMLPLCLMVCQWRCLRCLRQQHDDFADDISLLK

With `CC#CC(=O)Nc1ccc(F)c(C2(C)Cc3c(F)cncc3C(N)=N2)c1` (stereo not drawn) [Compound I-34], the results for the IC50 (at Recombinant human BACE1; in data set [1]) were ≤ 1000 nM and 20 nM, respectively. As for `CC1(c2cc(NC(=O)c3ncc(F)cc3F)ccc2F)Cc2c(F)cncc2C(N)=N1` (stereo not drawn) [Compound I-18], at Recombinant human BACE1, the IC50 is ≤ 1000 nM.

Consider `CC#CCOc1cnc(C(=O)Nc2ccc(F)c(C3(C)Cc4c(F)cncc4C(N)=N3)c2)cn1` (stereo not drawn) [Compound I-22], for which the IC50 on Recombinant human BACE1 was ≤ 1000 nM. On to `CC1(c2cc(NC(=O)c3ccc(C#N)cn3)ccc2F)Cc2ncc(F)cc2C(N)=N1` (stereo not drawn) [Compound I-7], for which the values for the IC50 (on Recombinant human BACE1; in data set [1]) were ≤ 1000 nM and 2 nM, respectively.

With `COc1cnc(C(=O)Nc2ccc(F)c(C3(C)Cc4ccncc4C(N)=N3)c2)cn1` (stereo not drawn) [Compound I-24], the IC50 at Recombinant human BACE1 is ≤ 1000 nM.

For the molecule `COCC#CC(=O)Nc1ccc(F)c(C2(C)Cc3cnccc3C(N)=N2)c1` (stereo not drawn) [Compound I-28], the IC50 (on Recombinant human BACE1; in data set [1]) was ≤ 3000 nM each time. As for `CC#CCOc1cnc(C(=O)Nc2ccc(F)c(C3(C)Cc4ccncc4C(N)=N3)c2)cn1` (stereo not drawn) [Compound I-26], the IC50 at Recombinant human BACE1 was ≤ 1000 nM.

Consider `CCCC#CC(=O)Nc1ccc(F)c(C2(C)Cc3cnccc3C(N)=N2)c1` (stereo not drawn) [Compound I-29], for which the IC50 at Recombinant human BACE1 is ≤ 3000 nM. Turning to `CC1(c2cc(NC(=O)c3ncc(F)cc3F)ccc2F)Cc2cnccc2C(N)=N1` (stereo not drawn) [Compound I-12], the IC50 at Recombinant human BACE1 was ≤ 1000 nM. Still for that read-out and setting: for `CC1(c2cc(NC(=O)c3ccc(Cl)cn3)ccc2F)Cc2ccncc2C(N)=N1` (stereo not drawn) [Compound I-3] the value was ≤ 1000 nM; for `CCC#CC(=O)Nc1ccc(F)c(C2(C)Cc3cnccc3C(N)=N2)c1` (stereo not drawn) [Compound I-33], ≤ 1000 nM. In the case of `Cc1cnc(C(=O)Nc2ccc(F)c(C3(C)Cc4ccncc4C(N)=N3)c2)cn1` (stereo not drawn) [Compound I-25], on Recombinant human BACE1, the IC50 is ≤ 1000 nM. Consider `CC1(c2cc(NC(=O)C#Cc3ccccc3)ccc2F)Cc2cnccc2C(N)=N1` (stereo not drawn) [Compound I-30], for which the IC50 was 147 nM at Recombinant human BACE1 and 46 nM in data set [1]. Consider `CC1(c2cc(NC(=O)c3ccc(C(F)(F)F)cn3)ccc2F)Cc2cnccc2C(N)=N1` (stereo not drawn) [Compound I-13], for which the IC50 on Recombinant human BACE1 was ≤ 1000 nM. `CC1(c2cc(NC(=O)c3ccc(C#N)cn3)ccc2F)Cc2c(ccnc2F)C(N)=N1` (stereo not drawn) [Compound I-10]: the IC50 at Recombinant human BACE1 was ≤ 1000 nM. For the molecule `CC1(c2cc(NC(=O)c3ccc(C(F)(F)F)cn3)ccc2F)Cc2c(F)cncc2C(N)=N1` (stereo not drawn) [Compound I-19], on Recombinant human BACE1, the IC50 is ≤ 1000 nM. Regarding `Cc1cnc(C(=O)Nc2ccc(F)c(C3(C)Cc4cnccc4C(N)=N3)c2)cn1` (stereo not drawn) [Compound I-15], the IC50 on Recombinant human BACE1 is ≤ 1000 nM.

As to `CC1(c2cc(NC(=O)c3ccc(C#N)cn3)ccc2F)Cc2ccncc2C(N)=N1` (stereo not drawn) [Compound I-8], the IC50 at Recombinant human BACE1 was ≤ 1000 nM. For `CC1(c2cc(NC(=O)c3ccc(C#N)cn3)ccc2F)Cc2c(F)cncc2C(N)=N1` (stereo not drawn) [Compound I-9], the IC50 at Recombinant human BACE1 was ≤ 1000 nM. The solubility at 4 h in data set [2] (JP-I medium, pH 1.2, simulated gastric fluid, JP-I) is > 40 µM; in data set [2] (JP-II medium, pH 6.8, aqueous buffer, JP-II), > 40 µM. `Cc1cnc(C(=O)Nc2ccc(F)c(C3(C)Cc4c(F)cncc4C(N)=N3)c2)cn1` (stereo not drawn) [Compound I-21]: the IC50 on Recombinant human BACE1 was ≤ 1000 nM. Still for that read-out and setting: for `CC1(c2cc(NC(=O)c3ccc(C#N)cn3)ccc2F)Cc2cccnc2C(N)=N1` (stereo not drawn) [Compound I-4] the value was ≤ 1000 nM; for `CC1(c2cc(NC(=O)c3ccc(Cl)cn3)ccc2F)Cc2cnccc2C(N)=N1` (stereo not drawn) [Compound I-11], ≤ 1000 nM. Consider `CCCCC#CC(=O)Nc1ccc(F)c(C2(C)Cc3cnccc3C(N)=N2)c1` (stereo not drawn) [Compound I-32], for which the IC50 on Recombinant human BACE1 was ≤ 3000 nM.

Consider `CC#CC(=O)Nc1ccc(F)c(C2(C)Cc3cnccc3C(N)=N2)c1` (stereo not drawn) [Compound I-27], for which the IC50 on Recombinant human BACE1 is 308 nM. With `CC1(c2cc(NC(=O)C#CC3CC3)ccc2F)Cc2cnccc2C(N)=N1` (stereo not drawn) [Compound I-31], at Recombinant human BACE1, the IC50 is ≤ 3000 nM. Turning to `COc1cnc(C(=O)Nc2ccc(F)c(C3(C)Cc4c(F)cncc4C(N)=N3)c2)cn1` (stereo not drawn) [Compound I-20], the IC50 on Recombinant human BACE1 is ≤ 1000 nM.

On to `COc1cnc(C(=O)Nc2ccc(F)c(C3(C)Cc4cnccc4C(N)=N3)c2)cn1` (stereo not drawn) [Compound I-14], for which the IC50 on Recombinant human BACE1 is ≤ 1000 nM.

Turning to `CC#CCOc1cnc(C(=O)Nc2ccc(F)c(C3(C)Cc4cnccc4C(N)=N3)c2)cn1` (stereo not drawn) [Compound I-16], the IC50 at Recombinant human BACE1 was ≤ 1000 nM.

For `CC1(c2cc(NC(=O)c3ccc(C#N)cn3)ccc2F)Cc2ncccc2C(N)=N1` (stereo not drawn) [Compound I-1], the IC50 at Recombinant human BACE1 came out at 54 nM. Also, at CYP3A4, the “CYP3A4 fluorescent MBI (difference between IC50 values without and with preincubation)” value was “(−) (when the difference is 3 μM or less, this was defined as (−))”.

Turning to `CC1(c2cc(NC(=O)c3ccc(C(F)(F)F)cn3)ccc2F)Cc2ccncc2C(N)=N1` (stereo not drawn) [Compound I-23], the IC50 on Recombinant human BACE1 was ≤ 1000 nM.

Take `CC1(c2cc(NC(=O)c3ccc(C#N)cn3)ccc2F)Cc2cncc(F)c2C(N)=N1` (stereo not drawn) [Compound I-6]: the IC50 on Recombinant human BACE1 was ≤ 1000 nM.

Take `CC1(c2cc(NC(=O)c3ccc(Cl)cn3)ccc2F)Cc2c(F)cncc2C(N)=N1` (stereo not drawn) [Compound I-17]: the IC50 on Recombinant human BACE1 is ≤ 1000 nM.
